≈ marks a conversion by molar mass, not a printed value. Where a SMILES comes first, the peptide text is derived from it. The star is where a group is joined. βGlcNAc = CC(=O)N[C@@H]1[C@@H](O)[C@H](O)[C@@H](CO)O[C@H]1*; Palmitoyl = CCCCCCCCCCCCCCCC(=O)*; Myristoyl = CCCCCCCCCCCCCC(=O)*
Columns and labels:
[1] = system: S. aureus ATCC 33591; assay type: cell-based, Staphylococcus aureus; details: ATCC 33591, 18 h
Description: (§1) The Acinetobacter baumannii ATCC BAA-1605, Enterococcus faecium ATCC 700221, Klebsiella aerogenes ATCC 13048, Klebsiella pneumoniae ATCC 700603, Pseudomonas aeruginosa ATCC 9027, Staphylococcus aureus ATCC 33591, Candida glabrata ATCC 15126, strains were acquired from the American Type Culture Collection (ATCC). All the strains were stored at −80 °C in Roti-Store cryo vials and were transferred into fresh Mueller–Hinton broth (MHB, Becton Dickinson, Warsaw, Poland) for bacteria or RPMI-1640 (Sigma-Aldrich, Steinheim, Germany) for fungi before the tests and incubated for 24 h at 37 °C. Then, the cultures were seeded on the Mueller–Hinton agar (BioMaxima, Lublin, Poland) or Sabouraud dextrose agar (SDA, BioMaxima, Lublin, Poland) plates, respectively, and incubated as just mentioned. These agar cultures were used for further microbiological assays. Cell densities for all assays were adjusted spectrophotometrically (Multiskan GO Microplate Spectrophotometer, Thermo Fisher Scientific, Vantaa, Finland) at 600 and 530 nm for bacteria and fungi, respectively.
(§2) The MICs were determined using a broth microdilution method according to the Clinical and Laboratory Standard Institute guidelines. For this purpose, initial inoculums of bacteria (5 × 10^5 CFU/mL) in MHB and yeasts (2 × 10^3 CFU/mL) in RPMI-1640 with 2% D-glucose were exposed to the ranging concentration of lipopeptides (1–512 μg/mL) and incubated at 37 °C for 18 h and 24 h, respectively. The experiments were conducted on 96-well microtiter polystyrene plates (Kartell, Italy). The growth was assessed visually after incubation and the MIC was assumed as the lowest peptide concentration at which a noticeable growth of microorganisms was inhibited. All experiments were conducted in triplicate.

[2] = system: E. faecium ATCC 700221; assay type: cell-based, Enterococcus faecium; details: ATCC 700221, 18 h
Description: as §1, §2

[3] = system: A. baumannii ATCC BAA 1605; assay type: cell-based, Acinetobacter baumannii; details: ATCC BAA 1605, 18 h
Description: as §1, §2

[4] = system: K. pneumoniae ATCC 700603; assay type: cell-based, Klebsiella pneumoniae; details: ATCC 700603, 18 h
Description: as §1, §2

[5] = MTT assay, cytotoxicity; assay type: cell-based, human; details: human, HaCaT keratinocytes, 24 h incubation at 37 °C, 0.5–500 μg/mL, six replicates per concentration, repeated at least twice
Description: To evaluate the cytotoxicity of the test peptides (IC50), the classic MTT assay on 96-well plates was performed for human keratinocytes (HaCaT) which were acquired from the ATCC. The assay was based on colorimetric determination of the cell metabolic activity where the color intensity reflected the number of live cells that could be measured spectrophotometrically. The cell line was cultured in a Dulbecco’s modified Eagle Medium (Invitrogen) supplemented with 10% fetal bovine serum (v/v), 100 units/mL of penicillin, 100 μg/mL of streptomycin, and 2 mM L-glutamine and was kept at 37 °C in a humidified 5% CO2 incubator. Briefly, a day after plating of 500 cells per well, a series of concentrations (0.5–500 μg/mL) of the test compounds were applied. DMSO was added to the control cells at a final concentration of 1.0% (v/v), which was related to the maximum concentration of the solvent compounds used in the experiment. After 24 h of incubation at 37 °C (humidified 5% CO2 incubator) with the peptides, a medium containing 1 mg/mL of MTT was added to the wells up to a final concentration of 0.5 mg/mL. Subsequently, the plates were incubated at 37 °C for 4 h. Then, the medium was aspirated, and the formazan product was solubilized with DMSO. The background absorbance at 630 nm was subtracted from that at 570 nm for each well (Epoch, BioTek Instruments, Winooski, VT, USA). Six replicates were conducted for each concentration. All experiments were repeated at least twice and the resulting IC50 values were calculated with a GraFit 7 software (v. 7.0, Erithacus, Berkley, CA, USA).
The selectivity indexes were calculated for all the strains as IC50/MIC. According to IC50, in most cases, glycosylation caused only a slight decrease in toxicity. However, in contrast with SI calculated for HC50, the differences between USCLs and gUSCLs are not so distinct. […] Moreover, toxicity of USCLs and gUSCLs is high and exceeds their antimicrobial activity. The lipopetides were not selective against Gram-negative strains (K. pneumoniae, A. baumannii, P. aeruginosa, K. aerogenes) over human cells. A few USCLs were selective (SI > 1) against E. faecium and S. aureus with SI up to 1.87; and some gUSCLs were selective against E. faecium but not against S. aureus, with SI between 0.63 and 1.73. […] In this case, SI of gUSCLs was noticeably […] than that of corresponding parent USCLs (2.07, 1.99, 2.67 vs. 2.53, 2.36, 3.46, respectively). Selectivity indexes were plotted against adjusted retention time (Figures S15–S21). A moderate linear correlation was found in USCLs and K. pneumoniae, C. glabrata, and gUSCLs and K. pneumoniae, K. aerogenes (R^2 between 0.6064 and 0.6481). A relatively high linear correlation was obtained for USCLs and K. aerogenes (R^2 of 0.8214) and also for gUSCLs and C. glabrata (R^2 of 0.9223).

[6] = system: P. aeruginosa ATCC 9027; assay type: cell-based, Pseudomonas aeruginosa; details: ATCC 9027, 18 h
Description: as §1, §2

[7] = system: K. aerogenes ATCC 13048; assay type: cell-based, Klebsiella aerogenes; details: ATCC 13048, 18 h
Description: as §1, §2

Compound | MIC [1] [µg/mL] | MIC [2] [µg/mL] | MIC [3] [µg/mL] | MIC [4] [µg/mL] | MIC [6] [µg/mL] | MIC [7] [µg/mL] | IC50 at 24 h [5] [µg/mL]
CCCCCCCCCCCCCC(=O)N[C@@H](CCCNC(=N)N)C(=O)N[C@@H](CO)C(=O)N[C@@H](CCCNC(=N)N)C(N)=O [Peptide 2, C14-RSR-NH2] (Myristoyl-Arg-Ser-Arg-NH2) | 8 (≈ 12.8 µM) | 8 (≈ 12.8 µM) | 64 (≈ 102 µM) | 512 (≈ 817 µM) | 64 (≈ 102 µM) | 512 (≈ 817 µM) | 15 ± 2.05 (≈ 23.9 µM)
CCCCCCCCCCCCCC(=O)N[C@@H](CCCNC(=N)N)C(=O)N[C@@H](CCCNC(=N)N)C(=O)N[C@@H](CO)C(N)=O [Peptide 3, C14-RRS-NH2] (Myristoyl-Arg-Arg-Ser-NH2) | 16 (≈ 25.5 µM) | 8 (≈ 12.8 µM) | 64 (≈ 102 µM) | 512 (≈ 817 µM) | 64 (≈ 102 µM) | 512 (≈ 817 µM) | 14.3 ± 1.96 (≈ 22.8 µM)
CCCCCCCCCCCCCCCC(=O)N[C@@H](CO)C(=O)N[C@@H](CCCNC(=N)N)C(=O)N[C@@H](CCCNC(=N)N)C(N)=O [Peptide 4, C16-SRR-NH2] (Palmitoyl-Ser-Arg-Arg-NH2) | 8 (≈ 12.2 µM) | 8 (≈ 12.2 µM) | 32 (≈ 48.9 µM) | 512 (≈ 782 µM) | 16 (≈ 24.4 µM) | 16 (≈ 24.4 µM) | 4.02 ± 1.17 (≈ 6.14 µM)
CCCCCCCCCCCCCCCC(=O)N[C@@H](CCCNC(=N)N)C(=O)N[C@@H](CO)C(=O)N[C@@H](CCCNC(=N)N)C(N)=O [Peptide 5, C16-RSR-NH2] (Palmitoyl-Arg-Ser-Arg-NH2) | 8 (≈ 12.2 µM) | 8 (≈ 12.2 µM) | 32 (≈ 48.9 µM) | 64 (≈ 97.7 µM) | 64 (≈ 97.7 µM) | 32 (≈ 48.9 µM) | 5.72 ± 2.27 (≈ 8.73 µM)
CCCCCCCCCCCCCCCC(=O)N[C@@H](CCCNC(=N)N)C(=O)N[C@@H](CCCNC(=N)N)C(=O)N[C@@H](CO)C(N)=O [Peptide 6, C16-RRS-NH2] (Palmitoyl-Arg-Arg-Ser-NH2) | 8 (≈ 12.2 µM) | 8 (≈ 12.2 µM) | 32 (≈ 48.9 µM) | 32 (≈ 48.9 µM) | 16 (≈ 24.4 µM) | 64 (≈ 97.7 µM) | 7.84 ± 1.44 (≈ 12 µM)

Now from value to compound, other results behind:

MIC [1] [µg/mL] | MIC [2] [µg/mL] | MIC [3] [µg/mL] | MIC [4] [µg/mL] | MIC [6] [µg/mL] | MIC [7] [µg/mL] | Compound | IC50 at 24 h [5] [µg/mL]
64 (≈ 77.1 µM) | 32 (≈ 38.6 µM) | 64 (≈ 77.1 µM) | >512 | 128 (≈ 154 µM) | >512 | CCCCCCCCCCCCCC(=O)N[C@@H](CCCNC(=N)N)C(=O)N[C@@H](CO[C@@H]1O[C@H](CO)[C@@H](O)[C@H](O)[C@H]1NC(C)=O)C(=O)N[C@@H](CCCNC(=N)N)C(N)=O [Peptide 11, C14-RS(GlcNAc)R-NH2] (Myristoyl-Arg-Ser(βGlcNAc)-Arg-NH2) | 25.2 ± 3.47 (≈ 30.3 µM)
16 (≈ 18.6 µM) | 16 (≈ 18.6 µM) | 32 (≈ 37.3 µM) | 256 (≈ 298 µM) | 32 (≈ 37.3 µM) | 512 (≈ 597 µM) | CCCCCCCCCCCCCCCC(=O)N[C@@H](CO[C@@H]1O[C@H](CO)[C@@H](O)[C@H](O)[C@H]1NC(C)=O)C(=O)N[C@@H](CCCNC(=N)N)C(=O)N[C@@H](CCCNC(=N)N)C(N)=O [Peptide 13, C16-S(GlcNAc)RR-NH2] (Palmitoyl-Ser(βGlcNAc)-Arg-Arg-NH2) | 10.6 ± 2.04 (≈ 12.4 µM)
64 (≈ 77.1 µM) | 32 (≈ 38.6 µM) | 128 (≈ 154 µM) | >512 | 256 (≈ 308 µM) | >512 | CCCCCCCCCCCCCC(=O)N[C@@H](CO[C@@H]1O[C@H](CO)[C@@H](O)[C@H](O)[C@H]1NC(C)=O)C(=O)N[C@@H](CCCNC(=N)N)C(=O)N[C@@H](CCCNC(=N)N)C(N)=O [Peptide 10, C14-S(GlcNAc)RR-NH2] (Myristoyl-Ser(βGlcNAc)-Arg-Arg-NH2) | 32.1 ± 6.26 (≈ 38.7 µM)
16 (≈ 18.6 µM) | 8 (≈ 9.32 µM) | 32 (≈ 37.3 µM) | 256 (≈ 298 µM) | 64 (≈ 74.6 µM) | 256 (≈ 298 µM) | CCCCCCCCCCCCCCCC(=O)N[C@@H](CCCNC(=N)N)C(=O)N[C@@H](CCCNC(=N)N)C(=O)N[C@@H](CO[C@@H]1O[C@H](CO)[C@@H](O)[C@H](O)[C@H]1NC(C)=O)C(N)=O [Peptide 15, C16-RRS(GlcNAc)-NH2] (Palmitoyl-Arg-Arg-Ser(βGlcNAc)-NH2) | 5.16 ± 1.32 (≈ 6.01 µM)
32 (≈ 38.6 µM) | 16 (≈ 19.3 µM) | 64 (≈ 77.1 µM) | >512 | 256 (≈ 308 µM) | >512 | CCCCCCCCCCCCCC(=O)N[C@@H](CCCNC(=N)N)C(=O)N[C@@H](CCCNC(=N)N)C(=O)N[C@@H](CO[C@@H]1O[C@H](CO)[C@@H](O)[C@H](O)[C@H]1NC(C)=O)C(N)=O [Peptide 12, C14-RRS(GlcNAc)-NH2] (Myristoyl-Arg-Arg-Ser(βGlcNAc)-NH2) | 20.5 ± 3.05 (≈ 24.6 µM)
16 (≈ 18.6 µM) | 16 (≈ 18.6 µM) | 32 (≈ 37.3 µM) | 128 (≈ 149 µM) | 32 (≈ 37.3 µM) | 64 (≈ 74.6 µM) | CCCCCCCCCCCCCCCC(=O)N[C@@H](CCCNC(=N)N)C(=O)N[C@@H](CO[C@@H]1O[C@H](CO)[C@@H](O)[C@H](O)[C@H]1NC(C)=O)C(=O)N[C@@H](CCCNC(=N)N)C(N)=O [Peptide 14, C16-RS(GlcNAc)R-NH2] (Palmitoyl-Arg-Ser(βGlcNAc)-Arg-NH2) | 14.1 ± 3.48 (≈ 16.4 µM)

Reference: PMC9855884, “Glycosylated Lipopeptides—Synthesis and Evaluation of Antimicrobial Activity and Cytotoxicity” (Biomolecules, 2023)
